Data as given in patent US10093621B2, “4-oxo-N-(4-hydroxyphenyl)retinamide derivatives as therapeutic agents for the treatment of cancer” (FONDAZIONE IRCCS ISTITUTO NAZIONALE DEI TUMORI, priority 2014, dated 2018).

Columns and labels:
[1] = system: ovarian cancer cells (A2780); experiment: Cell cycle and apoptosis in ovarian cancer cells; format: cell-based
A2780 = experiment: Antiproliferative activity, sulphorhodamine B assay, 72 hours of treatment; format: cell-based; conditions: A2780 (ovary)
Protocol: (§1) The antiproliferative activity of the various compounds 1a-c (in both monotherapy and combined treatment) on the different tumour cell lines was evaluated by sulphorhodamine B assay after 72 hours of treatment, and the dose able to inhibit 50% of growth (IC50) was calculated for the monotherapy (the results are summarized in Table 1 and Table 3), while the Kern Index (KI) was determined as the synergism/antagonism […] index for the combined treatment (the results are depicted in FIG. 2).

[2] = In vivo plasma levels by HPLC after i.p. administration; parameters: species or system nude mice; conditions: for Plasma level: 5 hours after last administration, 5% DMSO, H2O
Protocol: To evaluate the plasma levels of salt 1a, 4-oxo-4-HPR (120 mg/kg) and salt 1a (sodium 4-aminoxyacetate-4-HPR) (60 and 100 mg/kg) were administered i.p. to nude mice for 4 consecutive days (once a day), and the plasma levels were evaluated by HPLC 5 hours after the last administration (the results are summarized in Table 2).

IGROV-1 = experiment: Antiproliferative activity, sulphorhodamine B assay, 72 hours of treatment; format: cell-based, human; conditions: IGROV-1 (ovary)
Protocol: as §1

MDA-MB-231 = experiment: as above; format: cell-based, human; conditions: MDA-MB-231 (breast)
Protocol: as §1

T47-D = experiment: as above; format: cell-based; conditions: T47-D (breast)
Protocol: as §1

STO = experiment: as above; format: cell-based, human; conditions: STO (mesothelioma)
Protocol: as §1

cell cycle = experiment: Cell cycle, propidium iodide staining, FACS; format: cell-based
Protocol: (§2) As regards to the evaluation of the mechanism of action, ROS generation was determined after 5 hours of treatment with the use of the 5-(and -6)-chloromethyl-2′, 7′-dichlorodihydrofluorescein diacetate (CM-H2DCFDA) probe, while the cell cycle was evaluated by staining with propidium iodide. Cytofluorimetric analysis (FACS) was conducted in both cases.

[3] = system: human breast cancer cells (MDA-MB-231); experiment: In vivo antitumor activity, breast cancer model (mammary fat pad); conditions: 90 mg/kg
Protocol: As regards the breast cancer model, human breast cancer cells (MDA-MB-231) were inoculated into the mammary fat pad of NOD/SCID-gamma mice, and treatment with the salt 1a began one week after tumor cell inoculation (dose: 90 mg/kg; 4 days/week for 5 weeks). The animals were examined twice a week to check their weight and any signs of toxicity. Tumour growth in the various groups (control and treated) was evaluated, and the differences were statistically analysed.

JVM-2 = experiment: Antiproliferative activity, sulphorhodamine B assay, 72 hours of treatment; format: cell-based; conditions: JVM-2 (lymphoma)
Protocol: as §1

BT-474 = experiment: as above; format: cell-based; conditions: BT-474 (breast)
Protocol: as §1

SKOV-3 = experiment: as above; format: cell-based; conditions: SKOV-3 (ovary)
Protocol: as §1

Sk-N-5Y = experiment: as above; format: cell-based; conditions: Sk-N-5Y (neuroblastoma)
Protocol: as §1

SK-N-BE = experiment: as above; format: cell-based; conditions: SK-N-BE (neuroblastoma)
Protocol: as §1

SK-N-SH = experiment: as above; format: cell-based; conditions: SK-N-SH (neuroblastoma)
Protocol: as §1

MESO = experiment: as above; format: cell-based; conditions: MESO (mesothelioma)
Protocol: as §1

[4] = system: tumour cell lines of different histotypes; experiment: Antiproliferative activity of combined treatment, sulphorhodamine B assay, Kern Index; format: cell-based; conditions: 72 hours, preliminary
Protocol: as §1

ROS = ROS generation, CM-H2DCFDA probe, FACS; format: cell-based; conditions: 5 hours of treatment
Protocol: as §2

[5] = system: ovarian cancer (IGROV-1) cells; format: in vivo
Protocol: For the ovarian model, nude mice were inoculated i.p. with IGROV-1 cells, and treatment with the salt 1a began one day after tumor cell inoculation (doses: 30, 60 and 90 mg/kg i.p.; 5 days/week for 4 weeks). The control mice were treated with the same solvent as used to dissolve the salt. The animals were examined twice a week to check their weight and any signs of toxicity. The survival time of the various groups (control and treated) was evaluated, and the differences were statistically analysed.

[6] = system: human mesothelioma (STO) cells; experiment: In vivo antitumor activity, mesothelioma xenograft (s.c.); parameters: species or system mice; conditions: 30 and 60 mg/kg i.p., 5 days/week for 4 weeks
Protocol: As regards to mesothelioma, the mice were inoculated s.c. with STO cells, and treatment with the salt 1a began one day after tumor cell inoculation (doses: 30 and 60 mg/kg i.p.; 5 days/week for 4 weeks). The control mice were treated with the same solvent as used to dissolve the salt. The animals were examined twice a week to check their weight and any signs of toxicity. Tumour growth in the various groups (control and treated) was evaluated, and the differences were statistically analysed (the results are shown in FIG. 3a).

CC(C=CC1=C(C)C(=NOCCN)CCC1(C)C)=CC=CC(C)=CC(=O)Nc1ccc(O)cc1 [Compound 1d, 9-[3-(2-Amino-ethoxyimino)-2,6,6-trimethyl-cyclohex-1-enyl]-3,7-dimethylnona-2,4,6,8-tetraenoic acid (4-hydroxy-phenyl)amide]
Apoptotic activity (sub-G1 peak) [1]: apoptotic (sub-G1 peak)
Cell cycle arrest [1]: induced a cycle arrest in G2-M
IC50 (A2780; Homo sapiens): 955 nM
melting point: 134 °C

CC1=C(/C=C/C(C)=C/C=C/C(C)=C/C(=O)Nc2ccc(O)cc2)C(C)(C)CCC1=O [Compound 4-oxo-4-HPR, 4-oxo-N-(4-hydroxyphenyl)retinamide]
Plasma level ([2]; i.p. once a day for 4 days, 5% cremophor): 0.8 μM ± 0.4
Accumulation of the compound in proximity to the inoculation site ([2]; treated mice, i.p.): observed

CCCCC(ON=C1CCC(C)(C)C(/C=C/C(C)=C/C=C/C(C)=C/C(=O)Nc2ccc(O)cc2)=C1C)C(=O)O (centres unmarked) [LOM1133]
IC50 (IGROV-1): 2190 nM
IC50 (MDA-MB-231): 2950 nM
IC50 (T47-D): 3000 nM
IC50 (A2780): 2370 nM

CC1=C(/C=C/C(C)=C/C=C/C(C)=C/C(=O)Nc2ccc(O)cc2)C(C)(C)CCC1=NOCCCC(=O)O [LOM1098]
IC50 (IGROV-1): 3540 nM
IC50 (MDA-MB-231): 4260 nM
IC50 (T47-D): 4200 nM
IC50 (A2780): 3590 nM

CC1=C(/C=C/C(C)=C/C=C/C(C)=C/C(=O)Nc2ccc(O)cc2)C(C)(C)CCC1=NOCC(=O)[O-].[Na+] [Salt 1a]
IC50 (IGROV-1): 3820 nM
IC50 (STO): 1480 nM
IC50 (MDA-MB-231): 3970 nM
Cell cycle arrest during the mitotic phase (antitubulin activity) (cell cycle): the cell cycle arrest during the mitotic phase
Tumour growth ([3]; MDA-MB-231, 4 days/week for 5 weeks, p=0.01): reduced tumour growth
Signs of toxicity ([3]; MDA-MB-231 model): without evident signs of severe toxicity
IC50 (JVM-2): 1110 nM
IC50 (BT-474): 3690 nM
IC50 (SKOV-3): 5960 nM
IC50 (T47-D): 3950 nM
IC50 (A2780): 2780 nM
IC50 (Sk-N-5Y): 1300 nM
IC50 (SK-N-BE): 1550 nM
IC50 (SK-N-SH): 1900 nM
IC50 (MESO): 1280 nM
Activity of combined treatment (Kern Index) ([4]; combined with 4-HPR): synergic activity
Activity of combined treatment (Kern Index) ([4]; combined with cisplatin): synergic activity
Activity of combined treatment (Kern Index) ([4]; combined with paclitaxel): synergic activity
ROS generation (pro-apoptotic activity) (ROS): the generation of ROS
Survival of the mice ([5]; IGROV-1 i.p., doses of 60 and 90 mg/kg i.p., 5 days/week for 4 weeks, p<0.01): significantly increased the survival
Signs of toxicity ([5]; IGROV-1 model, 60 and 90 mg/kg): without any evident signs of severe toxicity
Tumour growth [6]: activity trend of the compound, although it did not reach statistical significance
Plasma level ([2]; 60 mg/Kg i.p. once a day for 4 days): 60.3 μM ± 2.52
Plasma level ([2]; 100 mg/Kg i.p. once a day for 4 days): 63.7 μM ± 2.08
Toxicity for the animals ([2]; daily doses of 60 and 100 mg/kg): does not possess high toxicity
Solubility compared with the parent compound ([2]; from in vivo experiments in murine models): far more soluble than the parent compound
Plasma levels, times higher than 4-oxo-4-HPR ([2]; murine models, versus 4-oxo-4-HPR): up to 60 times
